Measured values taken from patent US20210300873A1 (Clear Creek Bio, Inc., priority 2020, published 2021).
Structures can show the parent of a compound that is named as a salt. Where two headings read alike, the source gives them in different places.

Format: physicochemical
Conditions: sodium salt; for Stability of the polymorphic form (in words): storage, ambient condition (temperature and humidity) or closed cap

Compound | Stability of the polymorphic form (in words) | Time after which the form converts to Pattern C (ambient condition) | Time after which the form converts to Pattern C (closed cap storage) | also measured
Cc1c(-c2ccc(-c3ccccc3F)cc2)nc2ccc(F)cc2c1C(=O)O [Pattern A, brequinar sodium salt] | metastable | – | – | –
Cc1c(-c2ccc(-c3ccccc3F)cc2)nc2ccc(F)cc2c1C(=O)O [Pattern B, brequinar sodium salt] | – | Pattern C after 4 days at ambient | – | –
Cc1c(-c2ccc(-c3ccccc3F)cc2)nc2ccc(F)cc2c1C(=O)O [Pattern C, 6-Flouro-2-(2′-fluoro-1,1′-biphenyl-4-yl)-3-methyl-4-quinolinecarboxylic acid sodium salt] | – | – | – | Stability of the polymorphic form (in words) (listed as polymorphic form C): stable
Cc1c(-c2ccc(-c3ccccc3F)cc2)nc2ccc(F)cc2c1C(=O)O [Pattern D, brequinar sodium salt] | unstable | to Pattern C after 3 days at ambient | – | –
Cc1c(-c2ccc(-c3ccccc3F)cc2)nc2ccc(F)cc2c1C(=O)O [Pattern E, brequinar sodium salt] | – | – | Pattern C after 1 week (closed cap weeks | –
Cc1c(-c2ccc(-c3ccccc3F)cc2)nc2ccc(F)cc2c1C(=O)O [Pattern F, brequinar sodium salt] | – | – | Pattern C after 1 week (closed cap weeks | –
Cc1c(-c2ccc(-c3ccccc3F)cc2)nc2ccc(F)cc2c1C(=O)O [Pattern G, brequinar sodium salt] | – | to Pattern C after 2 weeks at ambient | – | –
Cc1c(-c2ccc(-c3ccccc3F)cc2)nc2ccc(F)cc2c1C(=O)O [Pattern I, brequinar sodium salt] | unstable | 2 days | – | –
Cc1c(-c2ccc(-c3ccccc3F)cc2)nc2ccc(F)cc2c1C(=O)O [Pattern J, brequinar sodium salt] | – | – | 2 weeks | –
